Test results: PMC5770468, “Cardiac glycoside/aglycones inhibit HIV-1 gene expression by a mechanism requiring MEK1/2-ERK1/2 signaling” (Scientific Reports, 2018)
Where two headings read alike, the source gives them in different places.

Columns and labels:
[1] = system: HIV-1 (Gag) gene expression; experiment: HIV-1 (Gag) gene expression in HeLa rtTA-HIV-ΔMls cells, p24CA ELISA dose response; assay type: cell-based, HIV-1 (LAI); conditions: for IC50: read-out: IC50 (nM) HeLa rtTA-HIV-ΔMls
Protocol: Drug/compounds were tested for effects on HIV-1 gene expression using inducible Tet-ON HIV-1 cell lines [HeLa rtTA-HIV-ΔMls or rtTA-HIV(Gag-GFP)] containing a HIV-1 (LAI) provirus activatable by Dox or tetracycline transactivator (tTA)[69]. The rtTA-HIV-ΔMls provirus was modified and used as previously reported[9]–[11],[70]. The rtTA-HIV(Gag-GFP) provirus was generated by deletion of the PR and RT coding regions within pol and insertion of GFP to the 3′ of gag, creating GFP fused to the C-terminal of Gag. After 4 h of drug/compound treatment, HIV-1 gene expression was activated with Dox (2 μg/mL) or tTA (described below). Equal concentrations of DMSO were present in each experiment. After ~20 h, cells and media were harvested to monitor the effects of drug/compound treatments as described below. HIV-1 gene expression was quantified via p24^CA ELISA or monitoring Gag-GFP fluorescence in cells as described below. In parallel, cell viability of treatments were assessed by XTT assay (Sigma-Aldrich, #TOX2).
Drug/compounds were purchased from Sigma (Digoxin, #D6003; Digitoxin, #D5878; Digoxigenin, #D9026; Digitoxigenin, #D9404; Ouabain, #O3125; Bufalin, #S961175; Cinobufagin, #C1272; and Anisomycin, #A9789) and derivatives of convallatoxin were synthesized from C. Lingwood’s lab of the Hospital for Sick Children (convallatoxin, peruvoside, RIDK-34, -36, -20, -21, -27, and -28). […] Recombinant human EGF was from Invitrogen (#PHG0314). Chemical structures were drawn in ChemSketch (ACD/Labs).
To monitor HIV-1 gene expression or replication, Gag release into cell culture supernatants were assayed by ELISA using a p24^CA antigen capture assay kit (AIDS & Cancer Virus Program, NCI-Frederick, Frederick, MD USA). Media harvested from HIV clinical isolates were diluted ~10 fold (or as necessary) prior to performing this assay. For analysis of HIV-1 and SR protein expression (and phosphorylation states with calf intestinal alkaline phosphatase treatments), cells were lysed and analyzed by western blot as previously outlined. Phosphatase inhibitors (e.g. 10 mM sodium fluoride, 2 mM sodium orthovanadate) were added to solutions requiring phospho protein analyses. An anti-chicken NKA antibody (α6F, #a6F–c, Developmental Studies Hybridoma Bank, The University of Iowa, contributed by Douglas M. Fambrough, The Johns Hopkins University) was used as specified to detect NKA α1- and β1-subunits across species. […] Activation of MAPKs was determined by western blot quantitation and calculation of phospho/total protein levels. […] Images were exported as TIF files for assembly, rotation, and equal brightness/contrast adjustments in ImageJ or Microsoft Powerpoint. Some lanes were cropped and rearranged from the same blot/gel as indicated. In representative gel/blot sets, samples were electrophoresed from the same experiment as controls, resolved simultaneously on identically cast gel(s), transferred to same PVDF (by either wet electrophoretic or by Bio-Rad Trans-Blot® Turbo Transfer System), and detected at same time. Marked locations of molecular weight (MW) standards are shown on the left as a reference. […] SUnSET analysis of total cellular protein synthesis. HeLa rtTA-HIV-ΔMls cells were cultured in the presence/absence of compound and pathway inhibitor (if any) and Dox induced for ~24 h as already described, then treated with puromycin (10 μg/mL, Sigma-Aldrich, #P8833) for 30 min to label nascent proteins prior to harvest. As control, 10 µM of cycloheximide (Sigma-Aldrich, #C4849) was added to some cells prior to puromycin treatment. Cells were subsequently washed, whole cell lysates prepared, and proteins quantified by western blot using an anti-puromycin antibody (EMD Millipore, #anti-12D10) as described above. Transfection of plasmid DNA into cells.

HeLa rtTA-HIV-ΔMls cells = experiment: In vitro therapeutic index (CC20/IC50) in HeLa rtTA-HIV-ΔMls cells; assay type: cell-based, human
Source text: Without median toxic dose (TD50) and half-maximal effective concentration (EC50) data available to calculate TIs (in vivo) from HIV patients treated with CSs, we determined the following TIs for each cell type treated with a CS (summarized in Supplementary Table S1): in vitro TIs from HeLa rtTA-HIV-ΔMls cells using CC20/IC50 (instead of CC50/IC50), in vitro TIs from 24ST1NLESG cells using CC50/IC50, and ex vivo TIs from HIV-infected PBMCs using CC50/IC50 (at day 14 of culture approximated from available cell viability trends for CC50s of Supplementary Fig. S13 and inferred near maximal IC50s).
Supplementary Table S1. Comparison of the in vitro (IVTI) and ex vivo therapeutic indices (EVTIs) of CSs and their impact on the expression of essential HIV-1 proteins.
Notes: data for CC20, CC50, and IC50s for each drug/compound were estimated from dose response curves in Figures 1-2, Supplementary Table S1, Supplementary Figures S2, S5, and S13, and Wong et al.
">" means the estimate has not been accurately determined but is greater than the highest concentration […]
"( )" indicates preliminary data that was not shown. aCC20 instead of CC50 was estimated from dose response curves and used for calculation of IVTIs. bCells were treated at ~IC90of a CS.
(1 picture or pasted object on this page, not shown here)

HIV-1 Gag-GFP expression = experiment: Recovery of HIV-1 Gag-GFP expression by pathway inhibitors in the presence of CSs, HeLa rtTA-HIV(Gag-GFP) cells; assay type: cell-based; conditions: 12 μM U0126; 5.5 μM Selumetinib; 10 μM LY294002; 5 µM KB-R7943; CSs at ~IC80
Protocol: Figure 5 Effect of modulating NKA expression, [Ca^2+]i, and PI3K-AKT on HIV-1 gene expression. Depletion of the NKA perturbs HIV-1 RNA processing (n ≥ 3, mean, s.e.m.). HeLa rtTA-HIV(Gag-GFP) cells were transduced with two shRNAs (E6/E10) to knockdown expression of the NKA α1 subunit and their effect on HIV-1 gene expression analyzed. After positive selection of cells with puromycin for 24–48 h, HIV-1 expression was Dox induced for 20 h, and cells harvested for analyses. Total mRNA (and protein) was isolated from cells, reverse transcribed, and analyzed by qRT-PCR and data normalized to β-actin (a,c). Results are shown relative to Stuffer (+). (a) Expression levels of NKA α1 mRNAs assayed by qRT-PCR. (b) HIV-1 Gag expression assayed by p24^CA ELISA of cell lysates (40 μg). (c) Accumulation of HIV-1 US (black), SS (white), and MS (gray) mRNAs quantified by qRT-PCR. (d–g) CSs suppress HIV-1 gene expression independent of intracellular Ca^2+ flux/signaling and PI3K-AKT activation. HeLa rtTA-HIV(Gag-GFP) cells were pre-treated with either a chelator of [Ca^2+]i (5 µM BAPTA-AM, [Ca2+]ii), inhibitors of NCX Ca^2+-entry (5 µM KB-R7943, NCXi) or PI3K (10 μM LY294002, PI3Ki), or untreated (DMSO, no pathway inhibitor) for ~2 h prior to treatment with ~IC80s of CSs or DMSO for 4 h, and Dox induced for ~20 h. The pathway used by a CS to inhibit HIV-1 expression was determined by monitoring for recovery of Gag-GFP expression by measuring GFP fluorescence in cell lysates (and initially by plate scans of live/fixed cells, Supplementary Fig. S7a and S8c). (d) Levels of [Ca^2+]i measured by Fura Red AM™ (n ≥ 4, mean, s.e.m.). (e–f) Quantification of Gag-GFP expression by reducing SDS-PAGE in lysates (35 μg) of cells which were pre-treated with/without KB-R7943 (n ≥ 3–4 mean, s.e.m.). […] (g) Graph quantitating Gag expression by p24^CA ELISA in lysates of cells (35 μg) that were pre-treated with/without LY294002 (n ≥ 3, mean, s.e.m.). Statistical comparisons in (a–g) were performed as illustrated (black/gray dashed lines) or described in Methods.
Figure 6 CSs control HIV-1 gene expression through intracellular signaling. HeLa rtTA-HIV(Gag-GFP) cells were pre-treated with/without pathway inhibitor overnight (~15 h) and treated with ~IC80s of CSs. […] Graphs quantifying the activation level (phospho/total protein) of each MAP/MAPK by western blot. […] The signaling pathway(s) used by a CS to inhibit HIV-1 expression was determined by detecting Gag-GFP fluorescence in cell lysates (~35 μg) by reducing SDS-PAGE after pre-treatment of cells with a MEK1/2 (12 μM U0126, white), p38α/β/β2 (15 μM SB203580/p38i, gray), or JNK1/2/3 (1.25 μM SP600125/JNKi, hatched) inhibitor (n ≥ 5–7, 4–8, and 3–7, resp., mean, s.e.m.). […]

[2] = Human immunodeficiency virus 1, HeLa
[3] = Human immunodeficiency virus 1, HeLa, read-out: IC90, HIV-1 (Gag) gene expression

CC(=O)O[C@H]1[C@H]2O[C@]23[C@@H]2CC[C@@H]4C[C@@H](O)CC[C@]4(C)[C@H]2CC[C@]3(C)[C@H]1c1ccc(=O)oc1 [Cinobufagin]
IC50 [1, 2]: 24 nM | IC90 [1, 3]: 0.04 µM | IC80 ([1]; Human immunodeficiency virus 1, HeLa, read-out: ~IC80 (approximate concentration used in experiments)): ~0.04 µM | IC90 ([1]; Human immunodeficiency virus 1, HeLa, read-out: ~IC90 (approximate concentration used in experiments)): ~0.04 µM | better anti-HIV-1 activity than digoxin ([1]; cell based assays (HeLa rtTA-HIV-ΔMls)): 1.9 fold | better in vitro TI than digoxin (HeLa rtTA-HIV-ΔMls cells): 2.3 fold

C[C@@H]1O[C@@H](O[C@H]2CC[C@]3(C=O)[C@H]4CC[C@]5(C)[C@@H](C6=CC(=O)OC6)CC[C@]5(O)[C@@H]4CC[C@]3(O)C2)[C@H](O)[C@H](O)[C@H]1O [Convallatoxin]
better anti-HIV-1 activity than digoxin [1]: 3.8 fold | IC50 ([1]; Human immunodeficiency virus 1, HeLa, HIV-1 Gag expression, p24CA ELISA, 4 h drug then Dox ~20 h): 12 nM | IC90 ([1]; Human immunodeficiency virus 1, HeLa rtTA-HIV-ΔMls cells, read-out: IC90, HIV-1 (Gag) gene expression): 0.024 µM | better in vitro TI than digoxin (HeLa rtTA-HIV-ΔMls cells): 6.8 fold

O=c1cc(N2CCOCC2)oc2c(-c3ccccc3)cccc12 [LY294002]
reversal of CS inhibition of HIV-1 Gag-GFP expression by pathway inhibitor pre-treatment (HIV-1 Gag-GFP expression): did not reverse

CO[C@H]1[C@H](O)[C@H](O[C@H]2CC[C@@]3(C=O)[C@H](CC[C@@H]4[C@@H]3CC[C@]3(C)[C@@H](C5=CC(=O)OC5)CC[C@]43O)C2)O[C@@H](C)[C@@H]1O [Peruvoside]
reduced potency relative to convallatoxin ([1]; HeLa rtTA-HIV-ΔMls cells): 10 fold | IC50 [1, 2]: 80 nM | IC90 [1, 3]: 0.25 µM

CC1OC(OC2CC(O)C3(CO)C4C(O)CC5(C)C(C(=CC(=O)O)CO)CCC5(O)C4CCC3(O)C2)C(O)C(O)C1O (stereo not drawn) [RIDK-21]
anti-HIV-1 activity ([1]; HeLa rtTA-HIV-ΔMls cells): reduced/no anti-HIV-1 activity | IC50 ([1]; HIV-1 Gag expression, p24CA ELISA, 4 h drug then Dox ~20 h): > 100 nM

Cn1cnc2c(F)c(Nc3ccc(Br)cc3Cl)c(C(=O)NOCCO)cc21 [Selumetinib]
reversal of CS inhibition of HIV-1 Gag-GFP expression by pathway inhibitor pre-treatment (HIV-1 Gag-GFP expression): partially rescuing

N#CC(=C(/N)Sc1ccccc1N)/C(C#N)=C(/N)Sc1ccccc1N [U0126]
reversal of CS inhibition of HIV-1 Gag-GFP expression by pathway inhibitor pre-treatment (HIV-1 Gag-GFP expression): partially restored
